Our source for the relative viability values is the supplement of paper PMC10307832.

Holding throughout (experiment): relative viability (nuclei count vs DMSO), 5 days (fraction); higher = more cells survive
Compound in the assay “Bemcentinib + Pemetrexed”: Nc1nc(Nc2ccc3c(c2)CC[C@@H](N2CCCC2)CC3)nn1-c1cc2c(nn1)-c1ccccc1CCC2 [Bemcentinib] + Nc1nc2[nH]cc(CCc3ccc(C(=O)N[C@@H](CCC(=O)O)C(=O)O)cc3)c2c(=O)[nH]1 [Pemetrexed] (partner 0.2 µM)
In a few lines:
(§1)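 Lung cancer cell lines in 1536-well plates got either a single drug or a fixed anchor-drug dose together with five library-drug doses (not always all listed) in √10 steps, by pin tool, on the day after seeding. Nuclei were counted after 5 days, and relative viability is the treated-to-vehicle ratio of nuclei counts. Values are medians of duplicate plates.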

Compound in the assay “Bemcentinib + Foretinib”: Nc1nc(Nc2ccc3c(c2)CC[C@@H](N2CCCC2)CC3)nn1-c1cc2c(nn1)-c1ccccc1CCC2 [Bemcentinib] + COc1cc2c(Oc3ccc(NC(=O)C4(C(=O)Nc5ccc(F)cc5)CC4)cc3F)ccnc2cc1OCCCN1CCOCC1 [Foretinib] (partner 0.25 µM)
Summed up:
as §1

Compound in the assay “Bemcentinib + Dasatinib”: Nc1nc(Nc2ccc3c(c2)CC[C@@H](N2CCCC2)CC3)nn1-c1cc2c(nn1)-c1ccccc1CCC2 [Bemcentinib] + Cc1nc(Nc2ncc(C(=O)Nc3c(C)cccc3Cl)s2)cc(N2CCN(CCO)CC2)n1 [Dasatinib] (partner 0.075 µM)
In a few lines: as §1

Compound in the assay “Bemcentinib + Navitoclax”: Nc1nc(Nc2ccc3c(c2)CC[C@@H](N2CCCC2)CC3)nn1-c1cc2c(nn1)-c1ccccc1CCC2 [Bemcentinib] + CC1(C)CCC(c2ccc(Cl)cc2)=C(CN2CCN(c3ccc(C(=O)NS(=O)(=O)c4ccc(N[C@H](CCN5CCOCC5)CSc5ccccc5)c(S(=O)(=O)C(F)(F)F)c4)cc3)CC2)C1 [Navitoclax] (partner 0.5 µM)
Summed up:
as §1

Take LOU-NH91: the relative viability in the assay with Bemcentinib + Pemetrexed (first compound 0.04 µM) was determined as 0.408; with Bemcentinib + Pemetrexed (first compound 0.1265 µM), 0.369; in the assay with Bemcentinib + Pemetrexed (first compound 0.4 µM), 0.4; in the assay with Bemcentinib + Pemetrexed (first compound 1.265 µM), 0.45; with Bemcentinib + Pemetrexed (first compound 4 µM), 0.376; with Bemcentinib + Foretinib (first compound 0.04 µM), 0.891. Besides, the relative viability in the assay with Bemcentinib + Foretinib (first compound 0.1265 µM) came to 0.895; with Bemcentinib + Foretinib (first compound 0.4 µM), 0.933; with Bemcentinib + Foretinib (first compound 1.265 µM) it was 1.02; with Bemcentinib + Foretinib (first compound 4 µM), 0.988; in the assay with Bemcentinib + Dasatinib (first compound 0.04 µM) it was 0.508; with Bemcentinib + Dasatinib (first compound 0.1265 µM), 0.568. The relative viability with Bemcentinib + Dasatinib (first compound 0.4 µM) worked out at 0.59; with Bemcentinib + Dasatinib (first compound 1.265 µM) it was 0.335; with Bemcentinib + Dasatinib (first compound 4 µM), 0.61; with Bemcentinib + Navitoclax (first compound 0.04 µM), 0.639; in the assay with Bemcentinib + Navitoclax (first compound 0.1265 µM), 0.728; with Bemcentinib + Navitoclax (first compound 0.4 µM), 0.625. Further, the relative viability turned out to be 0.674 in the assay with Bemcentinib + Navitoclax (first compound 1.265 µM) and 0.722 in the assay with Bemcentinib + Navitoclax (first compound 4 µM).

Consider LU99A, for which the relative viability in the assay with Bemcentinib + Pemetrexed (first compound 0.04 µM) turned out to be 0.139; in the assay with Bemcentinib + Pemetrexed (first compound 0.1265 µM), 0.321; with Bemcentinib + Pemetrexed (first compound 0.4 µM), 0.241; with Bemcentinib + Pemetrexed (first compound 1.265 µM), 0.154; with Bemcentinib + Pemetrexed (first compound 4 µM), 0.16; with Bemcentinib + Foretinib (first compound 0.04 µM) it was 0.751. For the same cell line, the relative viability with Bemcentinib + Foretinib (first compound 0.1265 µM) came out at 0.763; with Bemcentinib + Foretinib (first compound 0.4 µM) it was 0.778; in the assay with Bemcentinib + Foretinib (first compound 1.265 µM) it was 0.816; in the assay with Bemcentinib + Foretinib (first compound 4 µM), 0.837; in the assay with Bemcentinib + Dasatinib (first compound 0.04 µM), 0.489; with Bemcentinib + Dasatinib (first compound 0.1265 µM) it was 0.568. The relative viability in the assay with Bemcentinib + Dasatinib (first compound 0.4 µM) was determined as 0.519; with Bemcentinib + Dasatinib (first compound 1.265 µM) it was 0.661; with Bemcentinib + Dasatinib (first compound 4 µM) it was 0.573; in the assay with Bemcentinib + Navitoclax (first compound 0.04 µM), 0.766; in the assay with Bemcentinib + Navitoclax (first compound 0.1265 µM), 0.93; with Bemcentinib + Navitoclax (first compound 0.4 µM) it was 0.697. Moreover, the relative viability with Bemcentinib + Navitoclax (first compound 1.265 µM) worked out at 0.755; with Bemcentinib + Navitoclax (first compound 4 µM), 0.821.

With LXF-289, the relative viability was determined as 0.907 in the assay with Bemcentinib + Pemetrexed (first compound 0.04 µM); 0.974 with Bemcentinib + Pemetrexed (first compound 0.1265 µM); 0.984 with Bemcentinib + Pemetrexed (first compound 0.4 µM); 0.993 in the assay with Bemcentinib + Pemetrexed (first compound 1.265 µM); 0.92 with Bemcentinib + Pemetrexed (first compound 4 µM); 0.959 in the assay with Bemcentinib + Foretinib (first compound 0.04 µM). Besides, the relative viability in the assay with Bemcentinib + Foretinib (first compound 0.1265 µM) was determined as 1.06; with Bemcentinib + Foretinib (first compound 0.4 µM), 0.976; with Bemcentinib + Foretinib (first compound 1.265 µM) it was 0.983; with Bemcentinib + Foretinib (first compound 4 µM), 0.994; with Bemcentinib + Dasatinib (first compound 0.04 µM) it was 0.206; with Bemcentinib + Dasatinib (first compound 0.1265 µM), 0.178. Besides, the relative viability was determined as 0.212 with Bemcentinib + Dasatinib (first compound 0.4 µM); 0.241 with Bemcentinib + Dasatinib (first compound 1.265 µM); 0.187 in the assay with Bemcentinib + Dasatinib (first compound 4 µM); 0.955 with Bemcentinib + Navitoclax (first compound 0.04 µM); 0.914 in the assay with Bemcentinib + Navitoclax (first compound 0.1265 µM); 0.979 in the assay with Bemcentinib + Navitoclax (first compound 0.4 µM). The figures for the relative viability with Bemcentinib + Navitoclax (first compound 1.265 µM) and with Bemcentinib + Navitoclax (first compound 4 µM) were 1 and 0.961, respectively.

Turning to NCI-H23, the relative viability in the assay with Bemcentinib + Pemetrexed (first compound 0.04 µM) is 0.626; with Bemcentinib + Pemetrexed (first compound 0.1265 µM) it was 0.724; in the assay with Bemcentinib + Pemetrexed (first compound 0.4 µM), 0.941; with Bemcentinib + Pemetrexed (first compound 1.265 µM), 0.763; with Bemcentinib + Pemetrexed (first compound 4 µM) it was 0.738; with Bemcentinib + Foretinib (first compound 0.04 µM) it was 0.916. Further, the relative viability came to 1.2 in the assay with Bemcentinib + Foretinib (first compound 0.1265 µM); 1.15 in the assay with Bemcentinib + Foretinib (first compound 0.4 µM); 1.09 with Bemcentinib + Foretinib (first compound 1.265 µM); 1.08 with Bemcentinib + Foretinib (first compound 4 µM); 0.476 in the assay with Bemcentinib + Dasatinib (first compound 0.04 µM); 0.884 in the assay with Bemcentinib + Dasatinib (first compound 0.1265 µM). The relative viability amounted to 0.985 in the assay with Bemcentinib + Dasatinib (first compound 0.4 µM); 0.632 in the assay with Bemcentinib + Dasatinib (first compound 1.265 µM); 0.828 in the assay with Bemcentinib + Dasatinib (first compound 4 µM); 0.779 with Bemcentinib + Navitoclax (first compound 0.04 µM); 0.869 with Bemcentinib + Navitoclax (first compound 0.1265 µM); 1.08 with Bemcentinib + Navitoclax (first compound 0.4 µM). Further, the relative viability with Bemcentinib + Navitoclax (first compound 1.265 µM) came out at 0.813; in the assay with Bemcentinib + Navitoclax (first compound 4 µM), 0.778.

NCI-H322M: the relative viability in the assay with Bemcentinib + Pemetrexed (first compound 0.04 µM) is 0.625; in the assay with Bemcentinib + Pemetrexed (first compound 0.1265 µM) it was 0.633; with Bemcentinib + Pemetrexed (first compound 0.4 µM) it was 0.659; in the assay with Bemcentinib + Pemetrexed (first compound 1.265 µM), 0.704; with Bemcentinib + Pemetrexed (first compound 4 µM), 0.618; with Bemcentinib + Foretinib (first compound 0.04 µM), 0.939. The relative viability with Bemcentinib + Foretinib (first compound 0.1265 µM) came to 1.01; with Bemcentinib + Foretinib (first compound 0.4 µM), 0.919; in the assay with Bemcentinib + Foretinib (first compound 1.265 µM), 1.11; in the assay with Bemcentinib + Foretinib (first compound 4 µM) it was 0.97; with Bemcentinib + Dasatinib (first compound 0.04 µM), 0.229; in the assay with Bemcentinib + Dasatinib (first compound 0.1265 µM) it was 0.279. In addition, the relative viability with Bemcentinib + Dasatinib (first compound 0.4 µM) stood at 0.251; in the assay with Bemcentinib + Dasatinib (first compound 1.265 µM) it was 0.267; with Bemcentinib + Dasatinib (first compound 4 µM), 0.258; in the assay with Bemcentinib + Navitoclax (first compound 0.04 µM), 1.11; with Bemcentinib + Navitoclax (first compound 0.1265 µM), 1.26; in the assay with Bemcentinib + Navitoclax (first compound 0.4 µM) it was 1.23. Further, the relative viability turned out to be 1.35 in the assay with Bemcentinib + Navitoclax (first compound 1.265 µM) and 1.37 in the assay with Bemcentinib + Navitoclax (first compound 4 µM).

As for NCI-H441, the relative viability is 0.24 with Bemcentinib + Pemetrexed (first compound 0.04 µM); 0.243 with Bemcentinib + Pemetrexed (first compound 0.1265 µM); 0.267 in the assay with Bemcentinib + Pemetrexed (first compound 0.4 µM); 0.245 with Bemcentinib + Pemetrexed (first compound 1.265 µM); 0.275 with Bemcentinib + Pemetrexed (first compound 4 µM); 1.16 with Bemcentinib + Foretinib (first compound 0.04 µM). The relative viability is 1.05 in the assay with Bemcentinib + Foretinib (first compound 0.1265 µM); 0.892 with Bemcentinib + Foretinib (first compound 0.4 µM); 0.917 with Bemcentinib + Foretinib (first compound 1.265 µM); 0.875 with Bemcentinib + Foretinib (first compound 4 µM); 0.536 in the assay with Bemcentinib + Dasatinib (first compound 0.04 µM); 0.773 with Bemcentinib + Dasatinib (first compound 0.1265 µM). Moreover, the relative viability with Bemcentinib + Dasatinib (first compound 0.4 µM) turned out to be 0.862; in the assay with Bemcentinib + Dasatinib (first compound 1.265 µM), 0.649; in the assay with Bemcentinib + Dasatinib (first compound 4 µM) it was 0.609; in the assay with Bemcentinib + Navitoclax (first compound 0.04 µM) it was 0.504; with Bemcentinib + Navitoclax (first compound 0.1265 µM) it was 0.752; in the assay with Bemcentinib + Navitoclax (first compound 0.4 µM), 0.637. Also, the results for the relative viability in the assay with Bemcentinib + Navitoclax (first compound 1.265 µM) and in the assay with Bemcentinib + Navitoclax (first compound 4 µM) were 0.59 and 0.598, respectively.

Consider NCI-H460, for which the relative viability in the assay with Bemcentinib + Pemetrexed (first compound 0.04 µM) worked out at 0.0651; with Bemcentinib + Pemetrexed (first compound 0.1265 µM), 0.0562; with Bemcentinib + Pemetrexed (first compound 0.4 µM), 0.0565; with Bemcentinib + Pemetrexed (first compound 1.265 µM) it was 0.0602; with Bemcentinib + Pemetrexed (first compound 4 µM) it was 0.0631; with Bemcentinib + Foretinib (first compound 0.04 µM) it was 1.01. For the same cell line, the relative viability was 1.22 with Bemcentinib + Foretinib (first compound 0.1265 µM); 1.1 in the assay with Bemcentinib + Foretinib (first compound 0.4 µM); 1.07 with Bemcentinib + Foretinib (first compound 1.265 µM); 1 with Bemcentinib + Foretinib (first compound 4 µM); 0.452 with Bemcentinib + Dasatinib (first compound 0.04 µM); 0.534 with Bemcentinib + Dasatinib (first compound 0.1265 µM). Moreover, the relative viability was found to be 0.562 with Bemcentinib + Dasatinib (first compound 0.4 µM); 0.535 with Bemcentinib + Dasatinib (first compound 1.265 µM); 0.551 with Bemcentinib + Dasatinib (first compound 4 µM); 0.994 in the assay with Bemcentinib + Navitoclax (first compound 0.04 µM); 1.47 with Bemcentinib + Navitoclax (first compound 0.1265 µM); 1.45 with Bemcentinib + Navitoclax (first compound 0.4 µM). In addition, the relative viability in the assay with Bemcentinib + Navitoclax (first compound 1.265 µM) came to 1.23; with Bemcentinib + Navitoclax (first compound 4 µM), 1.34.
